The text below walks through data of ChEMBL document CHEMBL1201862, “PubChem BioAssay data set” (2004).

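Where inhibition never reached the appropriate level, the endpoint shown equals the highest concentration tested. Otherwise, values were interpolated linearly from a five-concentration, 48-hour dose response in 96-well plates. GI50: concentration for 50% inhibition of growth.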 The source made the active and inactive calls. No stated cut-off is given here; in the data, active = GI50 up to about 1.1 µM and inactive = higher.

What all share (experiment): inhibition of tumour cell growth, NCI panel, 48 h
Assay [1] relates to SF-295.
Assay [2] deals with K562.
Assay [3] relates to NCI/ADR-RES.
Assay [4] relates to HCT-116.
The subject of assay [5] is M14.
The test system of assay [6] is 786-0.
Assay [7] has as its system SNB-19.
In assay [8] the test system is HOP-92.
Assay [9] concerns OVCAR-3.
The test system of assay [10] is SK-OV-3.
Assay [11] concerns SF-268.
The subject of assay [12] is RXF 393.
The subject of assay [13] is T47D.
For assay [14], the system named is U-251.
Assay [15] concerns HOP-62.
The test system of assay [16] is OVCAR-5.

Consider `Cc1ccnc2nc(-c3cccc(Cl)c3)cc(O)c12`, for which the GI50 in assay [1] was 0.0426 µM (active); in assay [2], < 0.0143 µM (active); in [3], 0.1 µM (active); in assay [4], 0.0269 µM (active); in assay [5] it was 0.0822 µM (active); in assay [6], 0.08 µM (active). Besides, the GI50 in assay [7] is 0.132 µM (active); in assay [8], 2.43 µM (inactive); in [9] it was 0.0279 µM (active); in assay [10], 0.267 µM (active); in [11], 20.7 µM (inactive); in [12], 2.77 µM (inactive). Further, the GI50 was > 100 µM (inactive) in assay [13], 0.0596 µM (active) in [14] and 0.0708 µM (active) in assay [15].

Regarding `CCCCCCOc1ccc(NC2=C(Cl)C(=O)c3cccnc3C2=O)cc1`, the GI50 in assay [1] was 3.65 µM (inactive); in [2], 1.39 µM (inactive); in assay [4], 0.895 µM (active); in [5], 1.3 µM (inactive); in assay [6], 1.48 µM (inactive); in assay [7] it was 2.7 µM (inactive). Moreover, the GI50 in [8] was 2.02 µM (inactive); in assay [16], 2.4 µM (inactive); in [9], 1.35 µM (inactive); in [10], 4.35 µM (inactive); in [11] it was 2.11 µM (inactive); in assay [12], 1.37 µM (inactive). The GI50 in assay [13] was 1.62 µM (inactive); in assay [14], 2.29 µM (inactive); in assay [15], 2.17 µM (inactive).

As to `N#CC1=C(N)N(c2ccccc2)C(c2ccco2)C1(C#N)C#N` (stereo unspecified), the GI50 was 28.4 µM (inactive) in [1]; 6.58 µM (inactive) in [2]; 27 µM (inactive) in assay [3]; 28.5 µM (inactive) in assay [4]; 20.6 µM (inactive) in assay [5]; 17.5 µM (inactive) in [6]. Besides, the GI50 in assay [7] was 26.9 µM (inactive); in assay [16] it was 22.9 µM (inactive); in assay [9], 19 µM (inactive); in [10], 77.8 µM (inactive); in assay [11] it was 34.7 µM (inactive); in assay [12], 17.5 µM (inactive). In addition, the GI50 in assay [13] was 15.2 µM (inactive); in assay [14], 21.8 µM (inactive); in [15], 21.8 µM (inactive).

For `COc1c(C)c(C/C=C(\C)CCCC(C)CCCC(C)CCCC(C)C)c(OC)c2ccccc12` (stereo unspecified), the GI50 in assay [1], in assay [2], in [3], in assay [4], in assay [5] and in assay [6] was > 100 µM (inactive) throughout. Moreover, the GI50 in assay [7], in assay [8], in [16], in assay [9], in assay [10] and in assay [11] was > 100 µM (inactive) throughout. Also, the GI50 in assay [12] and in assay [14] was > 100 µM (inactive) throughout.

`Nc1ccc2c(SCCSc3c4ccccc4nc4cc(N)ccc34)c3ccccc3nc2c1`: the GI50 in assay [1] was > 100 µM (inactive); in [2] it was 38.6 µM (inactive); in assay [3], > 100 µM (inactive); in assay [4] it was 57.4 µM (inactive); in [5] it was > 100 µM (inactive); in assay [6] it was > 100 µM (inactive). Besides, the GI50 in assay [7], in [8], in [16], in [9], in assay [10] and in assay [11] was > 100 µM (inactive) throughout. The GI50 in [13] is > 100 µM (inactive); in assay [14], 49.3 µM (inactive); in [15], > 100 µM (inactive).

For `c1ccc(/C(=N/Nc2cnccn2)c2ncccn2)cc1`, the GI50 in [1] is > 100 µM (inactive); in [2], > 100 µM (inactive); in assay [3] it was 83.2 µM (inactive); in [4], > 100 µM (inactive); in assay [5], 78.2 µM (inactive); in assay [6], 81.3 µM (inactive). The GI50 in [7] was > 100 µM (inactive); in [8] it was 35.7 µM (inactive); in assay [16], > 100 µM (inactive); in [9] it was 30.8 µM (inactive); in [10], 57.7 µM (inactive); in [11], 22.5 µM (inactive). Further, the figures for the GI50 in assay [12], in assay [14] and in assay [15] were > 100 µM (inactive), > 100 µM (inactive) and 53.5 µM (inactive), respectively.

Consider `COc1cc2c(c(OC3OC(CO)C(O)C(O)C3O)c1)C(=O)CC(c1ccc(O)cc1)O2` (stereo unspecified), for which the GI50 in assay [1], in assay [2], in [3], in [4], in assay [5] and in assay [6] was > 100 µM (inactive) in each case. Further, the GI50 in assay [7], in assay [8], in assay [16], in [9], in assay [10] and in [11] was > 100 µM (inactive) each time. Further, the GI50 in assay [13] and in [14] was > 100 µM (inactive) throughout.

Consider `CC(=O)NNC1=NN(C(C)=O)C2(S1)C(=O)Nc1ccccc12` (stereo unspecified), for which the GI50 in assay [2], in [3], in assay [4], in [5], in [6] and in assay [7] was > 100 µM (inactive) throughout. The GI50 in assay [16], in assay [9], in assay [10], in assay [11], in [13] and in [14] was > 100 µM (inactive) each time. The GI50 in assay [15] was > 100 µM (inactive).

In the case of `CCC1C(c2cc(OC)c(OC)c(OC)c2)c2cc3c(cc2OC1N1CCOCC1)OCO3` (stereo unspecified), the GI50 in assay [1] was 2.79 µM (inactive); in [3], 5.61 µM (inactive); in assay [4], 3.68 µM (inactive); in [5], 4.12 µM (inactive); in assay [6], 11.6 µM (inactive); in assay [7], 4.14 µM (inactive). Also, the GI50 was 10.8 µM (inactive) in assay [8]; 2.29 µM (inactive) in assay [16]; 4.31 µM (inactive) in assay [9]; 4.88 µM (inactive) in assay [10]; 10.5 µM (inactive) in assay [11]; 10.5 µM (inactive) in [13]. Moreover, the GI50 in assay [15] was 4.01 µM (inactive).

`COC(=O)c1c(O)ccc2c1c1c(n2Cc2ccc(OC)cc2)C(=O)c2ccccc2C1`: the GI50 is 47.4 µM (inactive) in [1]; 76.7 µM (inactive) in assay [2]; 32.9 µM (inactive) in assay [3]; 60.4 µM (inactive) in assay [4]; 38.7 µM (inactive) in [5]; 53.2 µM (inactive) in assay [6]. In addition, the GI50 in assay [7] is 71 µM (inactive); in [9], 63.2 µM (inactive); in assay [10] it was 31 µM (inactive); in assay [11] it was 30.3 µM (inactive); in assay [12] it was 20.3 µM (inactive); in assay [14] it was 47.3 µM (inactive). For the same molecule, the GI50 in assay [15] is > 100 µM (inactive).

Regarding `N#Cc1ccc2oc3ccc(C#N)cc3c(=O)c2c1`, the GI50 in [1] was 22.9 µM (inactive); in assay [2], 31.3 µM (inactive); in assay [3], > 100 µM (inactive); in [4], 29 µM (inactive); in assay [5], > 100 µM (inactive); in assay [6], 25.8 µM (inactive). The GI50 in assay [7] is 27.9 µM (inactive); in [8], 41 µM (inactive); in assay [16], 19.7 µM (inactive); in assay [9], > 10 µM (inactive); in assay [11] it was 35.9 µM (inactive); in [12] it was 18.3 µM (inactive). In addition, the results for the GI50 in assay [13] and in [14] were > 100 µM (inactive) and 17.1 µM (inactive), respectively.

With `NNc1nnc(CCCCCCCCc2nnc(NN)n2N)n1N`, the GI50 in [1] was 76.9 µM (inactive); in [2] it was 14 µM (inactive); in assay [3], 80.4 µM (inactive); in [4], > 100 µM (inactive); in assay [5] it was > 100 µM (inactive); in assay [6], 33.1 µM (inactive). Moreover, the GI50 in assay [7] was 64.3 µM (inactive); in [8], 28 µM (inactive); in assay [16], > 100 µM (inactive); in assay [10] it was > 100 µM (inactive); in assay [11], 43.3 µM (inactive); in assay [12] it was > 100 µM (inactive). The GI50 in assay [14] was 16.9 µM (inactive); in assay [15] it was 37.2 µM (inactive).

Regarding `CCOC(=O)C1=C(Nc2cccc(OC)c2)OCC1=O`, the GI50 in assay [1], in assay [2], in [3], in assay [4], in assay [5] and in assay [6] was > 100 µM (inactive) in each case. Moreover, the GI50 in assay [7], in assay [8], in assay [10], in assay [11], in [12] and in [13] was > 100 µM (inactive) each time. Further, the GI50 in assay [14] and in [15] was > 100 µM (inactive) each time.

For `C=C1CC[C@H]2C(C)=CC[C@H]3C(=C)C(=O)O[C@@H]3[C@@H]12` [EREMANTHIN], the GI50 in assay [1], in [2], in assay [3], in assay [4], in assay [5] and in assay [6] was > 100 µM (inactive) throughout. For the same molecule, the GI50 in [7], in assay [8], in assay [16], in assay [10], in [13] and in assay [14] was > 100 µM (inactive) each time.
